Results taken from paper PMC3203319 (The Journal of antibiotics, 2011).
≈ marks a conversion by molar mass, not a printed value. One block for each molecule: values may come before it.

Assays:
MSSA = assay: MIC assay with 50% mouse serum added; assay type: cell-based, S. aureus; conditions: fold shift in MIC with 50% mouse serum
MRSA = assay: MIC assay with 50% human serum added; assay type: cell-based, S. aureus; conditions: fold shift in MIC with 50% human serum
S.aureus ATCC 33591 = assay: MIC, MRSA panel; assay type: cell-based; conditions: Staphylococcus aureus, ATCC33591|MRSA
S.aureus COL = assay: MIC, MRSA panel; assay type: cell-based; conditions: Staphylococcus aureus
S.aureus BK 2384 = assay: MIC, MRSA panel; assay type: cell-based; conditions: Staphylococcus aureus
S.aureus BSA 643 = assay: MIC, MRSA panel; assay type: cell-based; conditions: Staphylococcus aureus
S.aureus BSA 678 = assay: MIC, MRSA panel; assay type: cell-based; conditions: Staphylococcus aureus
S.aureus NY 2746 = assay: MIC, MRSA panel; assay type: cell-based; conditions: Staphylococcus aureus
S.aureus ACH-0231 = assay: MIC, MRSA panel; assay type: cell-based; conditions: Staphylococcus aureus
S.aureus ACH-0232 = assay: MIC, MRSA panel; assay type: cell-based; conditions: Staphylococcus aureus
S.epidermidis (MS) SE42 = assay: MIC, Gram-positive panel; assay type: cell-based; conditions: Staphylococcus epidermidis
[1] = tested on: S.haemolyticus (MS) ACH-0013; assay: MIC, Gram-positive panel; assay type: cell-based; conditions: Staphylococcus haemolyticus
E.faecalis ATCC 29212 = assay: MIC, Gram-positive panel; assay type: cell-based; conditions: Enterococcus faecalis, ATCC29212
E.faecium ATCC 49032 = assay: MIC, Gram-positive panel; assay type: cell-based; conditions: Enterococcus faecium, ATCC49032
[2] = tested on: S.epidermidis (FQR) ACH-0082; assay: MIC, Gram-positive panel; assay type: cell-based; conditions: Staphylococcus epidermidis
[3] = tested on: E.faecalis (VR) ATCC 700802; assay: MIC, Gram-positive panel; assay type: cell-based; conditions: Enterococcus faecalis, ATCC700802
[4] = tested on: E.faecium (VR) ATCC 700221; assay: MIC, Gram-positive panel; assay type: cell-based; conditions: Enterococcus faecium, ATCC700221
E.cloacae ACH-0008 = assay: MIC, Gram-negative panel; assay type: cell-based; conditions: Enterobacter cloacae, ACH0008
K.pneumoniae ATCC 13883 = assay: MIC, Gram-negative panel; assay type: cell-based; conditions: Klebsiella pneumoniae, ATCC13883
S.marcescens ACH-0009 = assay: MIC, Gram-negative panel; assay type: cell-based; conditions: Serratia marcescens, ACH0009
S.typhimurium ATCC 14028 = assay: MIC, Gram-negative panel; assay type: cell-based; conditions: Salmonella enterica, ATCC14028|TYPHIMURIUM
A.baumanii ATCC 9957 = assay: MIC, Gram-negative panel; assay type: cell-based; conditions: Acinetobacter baumannii, ATCC9957
E.coli 1GC2 = assay: MIC, Gram-negative panel; assay type: cell-based; conditions: Escherichia coli
E.coli FQR 362265 = assay: MIC, Gram-negative panel; assay type: cell-based; conditions: Escherichia coli, FQR362265
P.aeruginosa FQR 467296 = assay: MIC, Gram-negative panel; assay type: cell-based; conditions: Pseudomonas aeruginosa, FQR467296
S. aureus ATCC 29213 = assay: Time-kill study; assay type: cell-based; conditions: 2, 4 and 8 times the MIC, 24 h time course
C. albicans = assay: MIC against yeast; assay type: cell-based; conditions: Candida albicans, read-out: MIC C. albicans
[5] = tested on: DNA, RNA, and protein synthesis in S. aureus ATCC 29213; assay: Macromolecular synthesis assays; assay type: cell-based; conditions: 10× MIC, 20 min incubation
rat red blood cell = assay: Hemolysis, rat red blood cell assay; assay type: cell-based; conditions: rat red blood cells, data not shown
Plasma stability [6] = assay type: in vitro ADME; conditions: human
Plasma stability [7] = assay type: in vitro ADME; conditions: dog
Plasma stability [8] = assay type: in vitro ADME; conditions: rat
Plasma stability [9] = assay type: in vitro ADME; conditions: monkey
Plasma stability [10] = assay type: in vitro ADME; conditions: mouse
[11] = Stability in dosing vehicle; assay type: physicochemical; conditions: potassium phosphate at pH 7.4, after 4 h
[12] = Liver microsome stability; assay type: in vitro ADME; conditions: human liver microsomes (HLM)
[13] = Liver microsome stability; assay type: in vitro ADME; conditions: rat liver microsomes (RLM)
[14] = Liver S9 fraction stability; assay type: in vitro ADME, human
[15] = Liver S9 fraction stability; assay type: in vitro ADME; conditions: rat liver S9 fraction (RLS9)
Gram-positive bacteria = assay: MBC analysis, expanded panel of Gram-positive bacteria; assay type: cell-based; conditions: MIC = MBC

Compound: O=[N+]([O-])c1ccc(-c2nc3cccc(O)c3[nH]2)o1 [Compound 3e, 2-(5-Nitrofuran-2-yl)-3H-benzo[d]imidazole-4ol]
Fold Shift Mouse (MSSA): 4 × | Fold Shift Human (MRSA): 4 × | MIC (S.aureus ATCC 33591): 2 µg/mL (≈ 8.16 µM) | MIC (S.aureus COL): 1 µg/mL (≈ 4.08 µM) | MIC (S.aureus BK 2384): 1 µg/mL (≈ 4.08 µM) | MIC (S.aureus BSA 643): 1 µg/mL (≈ 4.08 µM) | MIC (S.aureus BSA 678): 1 µg/mL (≈ 4.08 µM) | MIC (S.aureus NY 2746): 2 µg/mL (≈ 8.16 µM) | MIC (S.aureus ACH-0231): 2 µg/mL (≈ 8.16 µM) | MIC (S.aureus ACH-0232): 2 µg/mL (≈ 8.16 µM) | MIC (S.epidermidis (MS) SE42): 1 µg/mL (≈ 4.08 µM) | MIC [1]: 0.5 µg/mL (≈ 2.04 µM) | MIC (E.faecalis ATCC 29212): 1 µg/mL (≈ 4.08 µM) | MIC (E.faecium ATCC 49032): 4 µg/mL (≈ 16.3 µM) | MIC [2]: 4 µg/mL (≈ 16.3 µM) | MIC [3]: 1 µg/mL (≈ 4.08 µM) | MIC [4]: 4 µg/mL (≈ 16.3 µM) | MIC (E.cloacae ACH-0008): 4 µg/mL (≈ 16.3 µM) | MIC (K.pneumoniae ATCC 13883): 8 µg/mL (≈ 32.6 µM) | MIC (S.marcescens ACH-0009): 16 µg/mL (≈ 65.3 µM) | MIC (S.typhimurium ATCC 14028): 4 µg/mL (≈ 16.3 µM) | MIC (A.baumanii ATCC 9957): > 64 µg/mL | MIC (E.coli 1GC2): 16 µg/mL (≈ 65.3 µM) | MIC (E.coli FQR 362265): 4 µg/mL (≈ 16.3 µM) | MIC (P.aeruginosa FQR 467296): > 64 µg/mL | Time-kill result (S. aureus ATCC 29213): bactericidal | MIC (C. albicans): > 64 µg/mL | inhibition of DNA, RNA and protein synthesis [5]: significantly inhibited DNA, RNA, and protein at nearly equivalent levels | hemolysis (rat red blood cell): negative | half-life (Plasma stability [6]): 4.5 h | half-life (Plasma stability [7]): 5.6 h | half-life (Plasma stability [8]): 3.9 h | half-life (Plasma stability [9]): 2 h | half-life (Plasma stability [10]): 3.6 h | stability in dosing vehicle [11]: no degradation | time to complete clearance [12]: ≤ 30 min | time to complete clearance [13]: ≤ 30 min | remaining ([14]; HLS9, after 60 min of incubation): 13% | half-life ([14]; human, liver S9 fraction): 0.21 h | clearance time [15]: < 30 min | bactericidal activity by MBC analysis (Gram-positive bacteria): bactericidal

MIC (S.aureus ATCC 33591): 1 µg/mL (≈ 0.69 µM) | MIC (S.aureus COL): 1 µg/mL (≈ 0.69 µM) | MIC (S.aureus BK 2384): 1 µg/mL (≈ 0.69 µM) | MIC (S.aureus BSA 643): 1 µg/mL (≈ 0.69 µM) | MIC (S.aureus BSA 678): 1 µg/mL (≈ 0.69 µM) | MIC (S.aureus NY 2746): 1 µg/mL (≈ 0.69 µM) | MIC (S.aureus ACH-0231): 2 µg/mL (≈ 1.38 µM) | MIC (S.aureus ACH-0232): 1 µg/mL (≈ 0.69 µM)
Compound: CN[C@H](CC(C)C)C(=O)N[C@H]1C(=O)N[C@@H](CC(N)=O)C(=O)N[C@H]2C(=O)N[C@H]3C(=O)N[C@H](C(=O)N[C@H](C(=O)O)c4cc(O)cc(O)c4-c4cc3ccc4O)[C@H](O)c3ccc(c(Cl)c3)Oc3cc2cc(c3O[C@@H]2O[C@H](CO)[C@@H](O)[C@H](O)[C@H]2O[C@H]2C[C@](C)(N)[C@H](O)[C@H](C)O2)Oc2ccc(cc2Cl)[C@H]1O [Vancomycin, reference compound]
